Marks after values point to notes of the source that are not given here.
Target: T1, RhlR (Pseudomonas aeruginosa, UniProt P54292)
T1 construct: expressed in transfected cells; host or cells: E. coli sdiA variant co-transformed with pJN105R and pSC11 (RhlA::lacZ)
Assay: cell-based
Details: footnotes not given; for activity at 100 µM: read-out: Relative RhlR activity Agonism, Table 2, matches the 100 column of Table 3; for remaining activity at 100 µM: read-out: Relative RhlR activity Antagonism, Table 2; for remaining activity at 100 µM / Relative RhlR activity Antagonism: 100 μM per Table 3, lower = stronger antagonism; for Relative RhlR activity Antagonism: Table 2
Procedure: Escherichia coli (E. coli) DH5a includes LuxR homolog SdiA detecting endogenous AHL synthesized by other microbial species, particularly, BHL.
For RhlR reporter strain analysis, the present invention used pJN105R (RhlR expression plasmid), anspSC11 (RhlA::lacZ fusion plasmid) and an sdiA variant co-transformed with the two plasmids. 1% of an overnight-cultured reporter strain (OD 595 nm=1.0) supplemented with 10 μg/mL gentamicin and 50 μg/mL ampicillin was cultured in a Luria-Bertani (LB) medium (Difco, Detroit, Mich., USA) with a positive control or a compound (0-1000 μM) and BHL (0-10 μM) (Sigma-Aldrich) at 37° C. for 2 hours. 0.4% arabinose (Sigma-Aldrich) was reacted with the resulting product at 37° C. for 1.5 hours. β-galactosidase activity was evaluated using a Tropix plus kit (Applied Biosystems, CA, USA), and OD 595 nm and luminescence were measured using a VICTOR x5 multimode plate reader (PerkinElmer, Waltham, Mass., USA). Relative RhlR activity was quantified by measuring luminescence at OD 595 nm. In addition, for LasR reporter strain analysis, the present invention used pJN105L (LasR expression plasmid) and pSC11 (lasI::lacZ fusion plasmid), E. coli DH5a co-transformed with the two plasmids, and OdDHL (Sigma-Aldrich).

T1 sequence (P54292 whole entry): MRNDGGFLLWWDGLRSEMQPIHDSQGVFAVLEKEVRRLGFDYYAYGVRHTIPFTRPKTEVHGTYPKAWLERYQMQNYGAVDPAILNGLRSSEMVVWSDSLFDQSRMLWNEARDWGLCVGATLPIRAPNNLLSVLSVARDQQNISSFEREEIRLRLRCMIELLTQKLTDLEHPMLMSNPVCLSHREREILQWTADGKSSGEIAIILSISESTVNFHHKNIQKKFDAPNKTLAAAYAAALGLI

Structure (SMILES) | activity at 100 µM [%] | remaining activity at 100 µM [%] | Relative RhlR activity Antagonism
CCCC(O)CC(=O)CCc1ccc(Cl)cc1 (centres unmarked) [Compound 12h, 1-(4-Chlorophenyl)-5-hydroxyoctan-3-one] | 2 | 69 | –
CCCC(O)CC(=O)CCc1ccc(O)c(O)c1 (centres unmarked) [Compound 12k, 1-(3,4-Dihydroxyphenyl)-5-hydroxyoctan-3-one] | 2 | 47 | –
CCCC(O)CC(=O)/C=C/c1cc(F)cc(OC)c1 (centres unmarked) [Compound 11r, (E)-1-(3-Fluoro-5-methoxyphenyl)-5-hydroxyoct-1-en-3-one] | 3 | 74 | 74** %
CCCC(O)CC(=O)CCc1ccccc1 (centres unmarked) [Compound 12b, 5-Hydroxy-1-phenyloctan-3-one] | 4 | 88 | –
CCCC(O)CC(=O)CCc1ccc(O)c(OC)c1 (centres unmarked) [Compound 2, 5-Hydroxy-1-(4-hydroxy-3-methoxyphenyl)octan-3-one] | 3 | 54 | 54** %
CCCCC(O)C#Cc1ccc(F)c(F)c1 (racemic) [Compound 34a, 1-(3,4-Difluorophenyl)hept-1-yn-3-ol] | 4 | 71 | –
CCCC(O)CC(=O)/C=C/c1ccccc1 (centres unmarked) [Compound 11b, (E)-5-Hydroxy-1-phenyloct-1-en-3-one] | 4 | 93 | 93* %
CCCCC[C@H](O)C#Cc1ccc(F)c(F)c1 [Compound 35c, (S)-1-(3,4-Difluorophenyl)oct-1-yn-3-ol] | 4 | 67 | –
CCCC(O)CC(=O)CCc1cccc(O)c1 (centres unmarked) [Compound 12e, 5-Hydroxy-1-(3-hydroxyphenyl)octan-3-one] | 2 | 81 | –
CCCC(O)CC(=O)/C=C/c1ccc(Cl)cc1 (centres unmarked) [Compound 11h, (E)-1-(4-Chlorophenyl)-5-hydroxyoct-1-en-3-one] | 1 | 64 | 64** %
CCCC(O)CC(=O)CCc1ccc(OC)cc1 (centres unmarked) [Compound 12f, 5-Hydroxy-1-(4-methoxyphenyl)octan-3-one] | 2 | 71 | –
CCCCCCCC(O)CC(=O)CCc1ccc(O)c(OC)c1 (centres unmarked) [Compound 6, 5-Hydroxy-1-(4-hydroxy-3-methoxyphenyl)dodecan-3-one] | 2 | 90 | –
CCCC(O)CC(=O)CCc1cccc(OC)c1 (centres unmarked) [Compound 12c, 5-Hydroxy-1-(3-methoxyphenyl)octan-3-one] | 2 | 90 | –
CCCCCC(=O)/C=C/c1ccc(O)c(OC)c1 [Compound 13b, (E)-1-(4-Hydroxy-3-methoxyphenyl)oct-1-en-3-one] | 2 | 41 | 41** %
CCCCCC(O)/C=C/c1ccc(F)c(F)c1 (centres unmarked) [Compound 15a, (E)-1-(3,4-Difluorophenyl)oct-1-en-3-ol] | 5 | 55 | –
CCCCC(O)CC(=O)CCc1ccc(O)c(OC)c1 (centres unmarked) [Compound 3, 5-Hydroxy-1-(4-hydroxy-3-methoxyphenyl)nonan-3-one] | 2 | 62 | –
CCCC(O)CC(=O)CCc1ccc(C)c(C)c1 (centres unmarked) [Compound 12p, 1-(3,4-Dimethylphenyl)-5-hydroxyoctan-3-one] | 3 | 82 | –
CCCCCCC(O)CC(=O)CCc1ccc(O)c(OC)c1 (centres unmarked) [Compound 5, 5-Hydroxy-1-(4-hydroxy-3-methoxyphenyl)undecan-3-one] | 3 | 83 | –
CCCC(O)CC(=O)CCc1ccc(N(C)C)cc1 (centres unmarked) [Compound 12j, 1-(4-(Dimethylamino)phenyl)-5-hydroxyoctan-3-one] | 1 | 74 | –
CCCC(O)CC(=O)/C=C/c1cccc(O)c1 (centres unmarked) [Compound 11e, (E)-5-Hydroxy-1-(3-hydroxyphenyl)oct-1-en-3-one] | 2 | 78 | 78** %
CCCC(O)CC(=O)/C=C/c1ccc(O)c(F)c1 (centres unmarked) [Compound 11m, (E)-1-(3-Fluoro-4-hydroxyphenyl)-5-hydroxyoct-1-en-3-one] | 2 | 60 | –

Structure (SMILES) | activity at 100 µM [%] | remaining activity at 100 µM [%] | Relative RhlR activity Antagonism
CCCC(O)CC(=O)CCc1cc(F)cc(OC)c1 (centres unmarked) [Compound 12r, 1-(3-Fluoro-5-methoxyphenyl)-5-hydroxyoctan-3-one] | 3 | 85 | –
CCCC[C@H](O)C#Cc1ccc(F)c(F)c1 [Compound 34c, (S)-1-(3,4-Difluorophenyl)hept-1-yn-3-ol] | 2 | 64 | –
CCCC(O)CC(=O)/C=C/c1ccc(OC)c(OC)c1 (centres unmarked) [Compound 11l, (E)-1-(3,4-Dimethoxyphenyl)-5-hydroxyoct-1-en-3-one] | 1 | 69 | –
CCCC(O)CC(=O)/C=C/c1ccccc1C (centres unmarked) [Compound 11i, (E)-5-Hydroxy-1-(o-tolyl)oct-1-en-3-one] | 2 | 65 | 65** %
CCCC(O)CC(=O)/C=C/c1ccc(C)c(C)c1 (centres unmarked) [Compound 11p, (E)-1-(3,4-Dimethylphenyl)-5-hydroxyoct-1-en-3-one] | 2 | 72 | 72** %
CCCCCC(=O)CCc1ccc(O)c(OC)c1 [Compound 14b, 1-(4-Hydroxy-3-methoxyphenyl)octan-3-one] | 2 | 49 | 49** %
CCCCCC(O)C#Cc1ccc(F)c(F)c1 (racemic) [Compound 35a, 1-(3,4-Difluorophenyl)oct-1-yn-3-ol] | 3 | 74 | –
CCCCCC(O)/C=C/c1ccc(O)c(OC)c1 (centres unmarked) [Compound 15b, (E)-4-(3-Hydroxyoct-1-en-1-yl)-2-methoxyphenol] | 2 | 41 | 41** %
CCCC(O)CC(=O)/C=C/c1ccc(N(C)C)cc1 (centres unmarked) [Compound 11j, (E)-1-(4-(Dimethylamino)phenyl)-5-hydroxyoct-1-en-3-one] | 2 | 53 | 53** %
CCCCCC(O)/C=C\c1ccc(O)c(OC)c1 (centres unmarked) [Compound 25, (Z)-4-(3-Hydroxyoct-1-en-1-yl)-2-methoxyphenol] | 3 | 79 | 79** %
CCCC(O)CC(=O)CCc1ccc(F)c(F)c1 (centres unmarked) [Compound 12o, 1-(3,4-Difluorophenyl)-5-hydroxyoctan-3-one] | 1 | 49 | –
CCCC(O)CC(=O)CCc1ccc(O)cc1 (centres unmarked) [Compound 12d, 5-Hydroxy-1-(4-hydroxyphenyl)octan-3-one] | 3 | 64 | –
CCCC(O)CC(=O)/C=C/c1ccc(O)c(OCC)c1 (centres unmarked) [Compound 11n, (E)-1-(3-Ethoxy-4-hydroxyphenyl)-5-hydroxyoct-1-en-3-one] | 1 | 91 | –
CCCCCC(O)CCc1ccc(F)c(F)c1 (centres unmarked) [Compound 16a, 1-(3,4-Difluorophenyl)octan-3-ol] | 5 | 61 | –
CCCC(O)CC(=O)CCc1ccc(O)c(F)c1 (centres unmarked) [Compound 12m, 1-(3-Fluoro-4-hydroxyphenyl)-5-hydroxyoctan-3-one] | 1 | 73 | –
CCCCC[C@@H](O)C#Cc1ccc(F)c(F)c1 [Compound 35b, (R)-1-(3,4-Difluorophenyl)oct-1-yn-3-ol] | 3 | 72 | –
CCCC(O)CC(=O)/C=C/c1ccc(F)cc1 (centres unmarked) [Compound 11g, (E)-1-(4-Fluorophenyl)-5-hydroxyoct-1-en-3-one] | 1 | 33 | 33** %
CCCC(O)CC(=O)CCc1ccc(O)c(OCC)c1 (centres unmarked) [Compound 12n, 1-(3-Ethoxy-4-hydroxyphenyl)-5-hydroxyoctan-3-one] | 1 | 98 | –
CCCC(O)CC(=O)CCc1ccc(F)cc1 (centres unmarked) [Compound 12g, 1-(4-Fluorophenyl)-5-hydroxyoctan-3-one] | 2 | 51 | –
CCCCCC(=O)CCc1ccc(F)c(F)c1 [Compound 14a, 1-(3,4-Difluorophenyl)octan-3-one] | 4 | 55 | –
CCCC(O)CC(=O)/C=C/c1ccc(F)c(OC)c1 (centres unmarked) [Compound 11q, (E)-1-(4-Fluoro-3-methoxyphenyl)-5-hydroxyoct-1-en-3-one] | 1 | 43 | 43** %

Source: patent publication US20220289657A1, “COMPOSITION FOR PREVENTING OR TREATING BACTERIAL INFECTIOUS DISEASE COMPRISING 4-GINGEROL DERIVATIVE COMPOUND AS ACTIVE INGREDIENT” (KOREA UNIVERSITY RESEARCH AND BUSINESS FOUNDATION, SEJONG …, priority 2019, published 2022)
